Source: patent US20240158446A1, “CYCLIC COMPOUND HAVING SELECTIVE INHIBITORY ACTION ON KRAS OVER HRAS AND NRAS” (CHUGAI SEIYAKU KABUSHIKI KAISHA, priority 2021, published 2024)
Like-named read-outs stand apart in the source and are kept apart here. Where a SMILES comes first, the peptide text is derived from it. Bridges are numbered along the chain shown (N, C = ends). [ ]: non-standard residue; d: D form. The star is where a group is joined. hPhe(3-Cl-4-CF3) = N[C@@H](CCc1ccc(C(F)(F)F)c(Cl)c1)C(=O)O; NPrPhe(4-CF3) = CCCN[C@@H](Cc1ccc(C(F)(F)F)cc1)C(=O)O; NPrPhe(4-Me) = CCCN[C@@H](Cc1ccc(C)cc1)C(=O)O; NEtPhe(4-Me) = CCN[C@@H](Cc1ccc(C)cc1)C(=O)O; NMePhe(4-Me) = CN[C@@H](Cc1ccc(C)cc1)C(=O)O; NMeGly(cPent) = CN[C@H](C(=O)O)C1CCCC1; Aze(3S-Me) = C[C@H]1CN[C@@H]1C(=O)O; NMeD = CN[C@@H](CC(=O)O)C(=O)O; NMeL = CN[C@@H](CC(C)C)C(=O)O; NMeS = CN[C@@H](CO)C(=O)O; Morpholide = C1CN(*)CCO1; NMeA = CN[C@@H](C)C(=O)O; Ac5c = NC1(C(=O)O)CCCC1; Aze = O=C(O)[C@@H]1CCN1; Sar = CNCC(=O)O

Legend:
[1] = target: GDP-bound NRAS wild-type protein (Homo sapiens, UniProt P01111); experiment: Binding to NRAS by surface plasmon resonance (SPR), Single Cycle Kinetics; settings: for NRAS/KRAS (ratio of KD value with respect to GDP-bound NRAS wild-type protein to KD value with respect to KRAS): SPR KD ratio NRAS/KRAS, class symbols
[2] = target: GDP-bound HRAS wild-type protein (Homo sapiens, UniProt P01112); experiment: Binding to HRAS by surface plasmon resonance (SPR), Single Cycle Kinetics; settings: for HRAS/KRAS (ratio of KD value with respect to GDP-bound HRAS wild-type protein to KD value with respect to KRAS): SPR KD ratio HRAS/KRAS, class symbols
[3] = target: GDP-bound KRAS wild-type protein (Homo sapiens, UniProt P01116); experiment: Binding to KRAS by surface plasmon resonance (SPR), Single Cycle Kinetics; settings: GDP-bound KRAS wild-type protein, read-out: KRAS KD
[4] = SPR, GDP-bound NRAS wild-type protein vs GDP-bound KRAS wild-type protein
[5] = SPR, GDP-bound HRAS wild-type protein vs GDP-bound KRAS wild-type protein
[6] = SPR Single Cycle Kinetics, 1:1 binding model

Sequence of GDP-bound NRAS wild-type protein (P01111 whole entry): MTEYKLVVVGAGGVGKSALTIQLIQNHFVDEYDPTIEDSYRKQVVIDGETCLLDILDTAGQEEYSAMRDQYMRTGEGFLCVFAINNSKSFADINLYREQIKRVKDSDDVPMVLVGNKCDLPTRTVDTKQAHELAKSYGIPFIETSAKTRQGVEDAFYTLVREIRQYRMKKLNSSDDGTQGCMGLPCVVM
Sequence of GDP-bound HRAS wild-type protein (P01112 whole entry): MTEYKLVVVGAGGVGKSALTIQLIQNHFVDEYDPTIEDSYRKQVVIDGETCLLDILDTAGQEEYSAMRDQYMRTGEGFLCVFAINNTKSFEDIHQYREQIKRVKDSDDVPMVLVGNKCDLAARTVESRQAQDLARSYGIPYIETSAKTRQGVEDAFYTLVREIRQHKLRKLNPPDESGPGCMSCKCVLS
Sequence of GDP-bound KRAS wild-type protein (P01116 whole entry): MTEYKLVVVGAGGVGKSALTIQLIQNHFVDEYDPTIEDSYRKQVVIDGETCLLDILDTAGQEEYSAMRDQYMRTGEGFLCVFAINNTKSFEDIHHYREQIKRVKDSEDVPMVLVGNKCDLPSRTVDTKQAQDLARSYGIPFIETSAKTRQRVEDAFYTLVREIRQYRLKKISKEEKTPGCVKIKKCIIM

SMILES	NRAS/KRAS (ratio of KD value for NRAS to KD value for KRAS) [1, 4]	HRAS/KRAS (ratio of KD value for HRAS to KD value for KRAS) [2, 5]	Kd [3, 6]	Kd ([3]; SPR, Single Cycle Kinetics)	other results
CCO[C@@H]1C[C@H]2C(=O)NC3(CCC3)C(=O)N(C)[C@@H](C3CCCC3)C(=O)N(C)[C@H](C(=O)N(C)C)CC(=O)N(C)[C@@H](CC(C)C)C(=O)N[C@@H]([C@@H](C)CC)C(=O)N(C)CC(=O)N(C)[C@H]3C/C=C\CCN(C3=O)[C@@H](Cc3ccc(F)cc3C)C(=O)N(C)CC(=O)N[C@@H](CCc3cc(F)c(C(F)(F)F)c(F)c3)C(=O)N2C1 [PP1532]	–	–	–	–	NRAS/KRAS (ratio of KD value for NRAS to KD value for KRAS) ([1]; SPR, GDP-bound NRAS wild-type protein vs GDP-bound KRAS wild-type protein, KD ratio class): A (a compound having 10 or more and less than 20 is denoted as A); HRAS/KRAS (ratio of KD value for HRAS to KD value for KRAS) ([2]; SPR, GDP-bound HRAS wild-type protein vs GDP-bound KRAS wild-type protein, KD ratio class): B (a compound having 3 or more and less than 10 is denoted as B); Kd ([3]; SPR, Single Cycle Kinetics, 1:1 binding model): 0.19 nM
CC[C@H](C)[C@@H]1NC(=O)[C@H](CC(C)C)N(C)C(=O)C[C@@H](C(=O)N2CCOCC2)N(C)C(=O)[C@H](C2CCCC2)N(C)C(=O)C2(CCCC2)NC(=O)[C@@H]2CCCN2C(=O)[C@H](CCc2ccc(C(F)(F)F)c(Cl)c2)NC(=O)CN(C)C(=O)[C@H](Cc2ccc(C)cc2)N(C)C(=O)[C@H](CO)N(C)C(=O)CN(C)C1=O [PP0037] ([NMeL]I[Sar][NMeS][NMePhe(4-Me)][Sar][hPhe(3-Cl-4-CF3)]P[Ac5c][NMeGly(cPent)][NMeD]-Morpholide; lactam N-11)	C (A compound having a KD ratio of 0.1 or more and less than 3 is denoted as C)	C (A compound having a KD ratio of 0.1 or more and less than 3 is denoted as C)	7.6 nM	–	–
CCO[C@@H]1C[C@H]2C(=O)NC3(CC(C)(C)C3)C(=O)N(C)[C@@H](C(CC)CC)C(=O)N(C)[C@H](C(=O)N3CCCC3)CC(=O)N(C)[C@@H](C)C(=O)N[C@@H]([C@@H](C)CC)C(=O)N(C)CC(=O)N(C)[C@H]3C/C=C\CCN(C3=O)[C@@H](Cc3ccc(C)cc3)C(=O)N(C)CC(=O)N[C@@H](CCc3ccc(C(F)(F)F)c(Cl)c3)C(=O)N2C1 [PP2152]	AA (a compound having 20 or more is denoted as AA)	A (a compound having 10 or more and less than 20 is denoted as A)	–	0.67 nM	–
CCCN1C(=O)[C@@H]2CCN2C(=O)[C@H](C)N(C)C(=O)[C@H]([C@@H](C)CC)NC(=O)[C@H](CC(C)C)N(C)C(=O)C[C@@H](C(=O)N2CCOCC2)NC(=O)[C@H](C2CCCC2)N(C)C(=O)C2(CCCC2)NC(=O)[C@@H]2CCCN2C(=O)[C@H](CCc2ccc(C(F)(F)F)c(Cl)c2)NC(=O)CN(C)C(=O)[C@@H]1Cc1ccc(C(F)(F)F)cc1 [PP0343] ([NMeL]I[NMeA][Aze][NPrPhe(4-CF3)][Sar][hPhe(3-Cl-4-CF3)]P[Ac5c][NMeGly(cPent)]D-Morpholide; lactam N-11)	C (A compound having a KD ratio of 0.1 or more and less than 3 is denoted as C)	B (a compound having 3 or more and less than 10 is denoted as B)	1.3 nM	–	–
CCCN1C(=O)[C@@H]2[C@@H](C)CN2C(=O)[C@H](C)N(C)C(=O)[C@H]([C@@H](C)CC)NC(=O)[C@H](CC(C)C)N(C)C(=O)C[C@@H](C(=O)N2CCOCC2)N(C)C(=O)[C@H](C2CCCC2)N(C)C(=O)C2(CCCC2)NC(=O)[C@@H]2CCCN2C(=O)[C@H](CCc2ccc(C(F)(F)F)c(Cl)c2)NC(=O)CN(C)C(=O)[C@@H]1Cc1ccc(C)cc1 [PP0138] ([NMeL]I[NMeA][Aze(3S-Me)][NPrPhe(4-Me)][Sar][hPhe(3-Cl-4-CF3)]P[Ac5c][NMeGly(cPent)][NMeD]-Morpholide; lactam N-11)	C (A compound having a KD ratio of 0.1 or more and less than 3 is denoted as C)	C (A compound having a KD ratio of 0.1 or more and less than 3 is denoted as C)	0.77 nM	–	–
CCO[C@@H]1C[C@H]2C(=O)NC3(CC(C)(C)C3)C(=O)N(C)[C@@H](C(CC)CC)C(=O)N(C)[C@H](C(=O)N(C)C)CC(=O)N(C)[C@@H](CC3CC3)C(=O)N[C@@H]([C@@H](C)CC)C(=O)N(C)CC(=O)N(C)[C@H]3C/C=C\CCN(C3=O)[C@@H](Cc3ccc(C)cc3)C(=O)N(C)CC(=O)N[C@@H](CCc3cc(F)c(C(F)(F)F)c(F)c3)C(=O)N2C1 [PP2137]	A (a compound having 10 or more and less than 20 is denoted as A)	A (a compound having 10 or more and less than 20 is denoted as A)	–	0.37 nM	–
CC[C@H](C)[C@@H]1NC(=O)[C@H](CC(C)C)N(C)C(=O)C[C@@H](C(=O)N2CCOCC2)N(C)C(=O)[C@H](C2CCCC2)N(C)C(=O)C2(CCCC2)NC(=O)[C@@H]2CCCN2C(=O)[C@H](CCc2cc(F)c(C(F)(F)F)c(F)c2)NC(=O)CN(C)C(=O)[C@H](Cc2ccc(C(F)(F)F)cc2)N2CCCCC[C@@H](C2=O)N(C)C(=O)[C@@H]2CCN2C1=O [PP0484]	–	–	3.2 nM	–	NRAS/KRAS (ratio of KD value with respect to NRAS to KD value with respect to KRAS) [1, 4]: A (a compound having 10 or more and less than 20 is denoted as A); HRAS/KRAS (ratio of KD value with respect to HRAS to KD value with respect to KRAS) [2, 5]: B (a compound having 3 or more and less than 10 is denoted as B)
C=CCN1CC(=O)N(C)[C@H]2C/C=C\CCN(C2=O)[C@@H](Cc2ccc(C)cc2)C(=O)N(C)CC(=O)N[C@@H](CCc2cc(F)c(C(F)(F)F)c(F)c2)C(=O)N2C[C@H](OCC)C[C@H]2C(=O)NC2(CC(C)(C)C2)C(=O)N(C)[C@@H](C2CCCC2)C(=O)N(C)[C@H](C(=O)N(C)C)CC(=O)N(C)[C@@H](CCC)C(=O)N[C@@H]([C@@H](C)CC)C1=O [PP2094]	A (a compound having 10 or more and less than 20 is denoted as A)	A (a compound having 10 or more and less than 20 is denoted as A)	–	0.29 nM	–
CC[C@H](C)[C@@H]1NC(=O)[C@H](CC(C)C)N(C)C(=O)C[C@@H](C(=O)N2CCOCC2)N(C)C(=O)[C@H](CC(C)C)N(C)C(=O)C2(CCCC2)NC(=O)[C@@H]2CCCN2C(=O)[C@H](CCc2ccc(C(F)(F)F)c(Cl)c2)NC(=O)CN(C)C(=O)[C@H](Cc2ccc(C)cc2)N(CC)C(=O)[C@@H]2CCN2C(=O)[C@H](C)N(C)C1=O [PP0016] ([NMeL]I[NMeA][Aze][NEtPhe(4-Me)][Sar][hPhe(3-Cl-4-CF3)]P[Ac5c][NMeL][NMeD]-Morpholide; lactam N-11)	C (A compound having a KD ratio of 0.1 or more and less than 3 is denoted as C)	C (A compound having a KD ratio of 0.1 or more and less than 3 is denoted as C)	1.6 nM	–	–
CCO[C@@H]1C[C@H]2C(=O)NC3(CCC3)C(=O)N(C)[C@@H](C3CCCC3)C(=O)N(C)[C@H](C(=O)N(C)C)CC(=O)N(C)[C@@H](CC)C(=O)N[C@@H]([C@@H](C)CC)C(=O)N3CC[C@H]3C(=O)N(C)[C@H]3C/C=C\CCN(C3=O)[C@@H](Cc3ccc(C(F)(F)F)cc3)C(=O)N(C)CC(=O)N[C@@H](CCc3cc(F)c(C(F)(F)F)c(F)c3)C(=O)N2C1 [PP0984]	A (a compound having 10 or more and less than 20 is denoted as A)	A (a compound having 10 or more and less than 20 is denoted as A)	–	0.28 nM	–
CCC[C@H]1C(=O)N[C@@H]([C@@H](C)CC)C(=O)N(C)CC(=O)N(C)[C@H]2C/C=C\CCN(C2=O)[C@@H](Cc2ccc(C(F)(F)F)cc2)C(=O)N(C)CC(=O)N[C@@H](CCc2cc(F)c3c(c2)CCC3)C(=O)N2C[C@H](OCC)C[C@H]2C(=O)NC2(CC(C)(C)C2)C(=O)N(C)[C@@H](C2CCCC2)C(=O)N(C)[C@H](C(=O)N(C)C)CC(=O)N1C [PP2849]	–	–	0.58 nM	–	NRAS/KRAS (ratio of KD value with respect to GDP-bound NRAS wild-type protein to KD value with respect to KRAS) [1]: A (a compound having 10 or more and less than 20 is denoted as A); HRAS/KRAS (ratio of KD value with respect to GDP-bound HRAS wild-type protein to KD value with respect to KRAS) [2]: A (a compound having 10 or more and less than 20 is denoted as A)
CCC[C@H]1C(=O)N[C@@H]([C@@H](C)CC)C(=O)N(C2CC2)CC(=O)N(C)[C@H]2C/C=C\CCN(C2=O)[C@@H](Cc2ccc(C(F)(F)F)cc2)C(=O)N(C)CC(=O)N[C@@H](CCc2cc(F)c(C(F)(F)F)c(F)c2)C(=O)N2C[C@H](OCC)C[C@H]2C(=O)NC2(CC(C)(C)C2)C(=O)N(C)[C@@H](CC2CC2)C(=O)N(C)[C@H](C(=O)N(C)C)CC(=O)N1C [PP2813]	–	–	1.7 nM	–	NRAS/KRAS (ratio of KD value with respect to GDP-bound NRAS wild-type protein to KD value with respect to KRAS) [1]: AA (a compound having 20 or more is denoted as AA); HRAS/KRAS (ratio of KD value with respect to GDP-bound HRAS wild-type protein to KD value with respect to KRAS) [2]: A (a compound having 10 or more and less than 20 is denoted as A)
CCC[C@H]1C(=O)N[C@@H]([C@@H](C)CC)C(=O)N(C)CC(=O)N(C)[C@H]2C/C=C\CCN(C2=O)[C@@H](Cc2ccc(C(F)(F)F)cc2)C(=O)N(C)CC(=O)N[C@@H](CCc2ccc(Cl)c(C(F)(F)F)c2)C(=O)N2C[C@H](OCC)C[C@H]2C(=O)NC2(CC(C)(C)C2)C(=O)N(C)[C@@H](C2CCCC2)C(=O)N(C)[C@H](C(=O)N(C)C)CC(=O)N1C [PP2784]	–	–	0.13 nM	–	NRAS/KRAS (ratio of KD value with respect to GDP-bound NRAS wild-type protein to KD value with respect to KRAS) [1]: A (a compound having 10 or more and less than 20 is denoted as A); HRAS/KRAS (ratio of KD value with respect to GDP-bound HRAS wild-type protein to KD value with respect to KRAS) [2]: A (a compound having 10 or more and less than 20 is denoted as A)
